Experimental data published in patent US9884806B2, “Cyclic vinylogous amides as bromodomain inhibitors” (ICAHN SCHOOL OF MEDICINE AT MOUNT SINAI, priority 2013, dated 2018).

What was measured:
[1] = molecular target: T1, first bromodomain (BrD1) of human BRD4 (Homo sapiens, UniProt O60885); assay: Fluorescence anisotropy binding assay (competition with FITC-labeled MS417 probe); conditions: FITC-MS417 probe 80 nM, PBS pH 7.4, 1 hour, 25° C., read-out: BRD4_1 IC50
T1 construct: the first bromodomain (BrD1) of human BRD4; poly-His (cleaved yes); made in house
Description: Fluorescence Anisotropy Binding Assay
Expression and purification of the first bromodomain (BrD1) of human BRD4 in poly-His tag form was performed using a procedure described in the literature [See Zeng et al. Structure 16, 643-652 (2008) and Zhang et al., J Biol Chem 287, 28840-28851 (2012).] The protein was purified by using affinity chromatography on a nickel-IDA column (Invitrogen), followed by the removal of poly-His tag by thrombin cleavage.
Binding affinity of the newly synthesized compounds to the BRD4 BrD1 was assessed in a fluorescence anisotropy assay using a fluorescein isothiocyanate (FITC)-labeled MS417 as an assay probe (Zhang et al. 2008 op.cit.). Competition binding was performed with a BrD protein (0.25 to 1 μM) and the fluorescent probe (80 nM), and increasing concentration of unlabeled competing ligand in a PBS buffer (pH 7.4) in total volume of 80 μL. Measurements were obtained after 1 hour incubation of the fluorescent ligand and the protein at 25° C. with Safire 2 microplate reader (Tecan). In the assay, fluorescent ligand concentration was ≦2Kd, and protein concentration was set at which 50-80% of fluorescent ligand is bound. Dissociation constant of a competing ligand was calculated with the correction to Cheng-Prussoff equation introduced by Nicolovska-Coleska and colleagues [Nikolovska-Coleska, Z. et al., Anal Biochem 332, 261-273 (2004). Assuming one-site competitive binding model, the equation used to calculate Ki's from IC50 values recovered from fitting data using Prism:
[formula] where [I50] is the concentration of free inhibitor at 50% inhibition, [L50], the concentration of free labeled ligand at 50% inhibition, and [P0], concentration of free protein at 0% inhibition. Note that Kd for each protein-probe pair is the limit of resolvable Ki in a competition assay.

BRD4_2 = molecular target: T2, BRD4_2 (Homo sapiens, UniProt O60885); assay: Fluorescence anisotropy binding assay (competition with FITC-labeled MS417 probe), BRD4_2; conditions: FITC-MS417 probe 80 nM, PBS pH 7.4, 1 hour, 25° C.
T2 construct: contains two tandem bromodomains (BrD1 and BrD2)

Row | IC50 [1] | IC50 (BRD4_2) | Compound
1 | 1 to 10 µM | 1 to 10 µM | COC(=O)c1ccc(C)c(NC(=O)c2ccc(Cl)c(NC3=C(C)C(=O)CCC3)c2)c1 [Example 04-93, methyl 3-(4-chloro-3-((2-methyl-3-oxocyclohex-1-en-1-yl)amino)benzamido)-4-methylbenzoate]
2 | 1 to 10 µM | 1 to 10 µM | COc1ccc(NC(=O)c2ccc(NC3=C(C)C(=O)CC3)c(F)c2)cc1 [Example 05-17, 3-fluoro-N-(4-methoxyphenyl)-4-((2-methyl-3-oxocyclopent-1-en-1-yl)amino)benzamide]
3 | > 10 µM | > 10 µM | CC1=C(Nc2ccc(Cl)cc2C(=O)O)CCC1=O [Examples 02-5]
4 | 1 to 10 µM | 1 to 10 µM | CC1=C(Nc2ccc(C(=O)NCc3ccccc3)cc2)CCC1=O [Example 03-18, N-benzyl-4-((2-methyl-3-oxocyclopent-1-en-1-yl)amino)benzamide]
5 | 1 to 10 µM | 1 to 10 µM | COc1cccc(NC(=O)c2ccc(NC3=C(C)C(=O)CC3)c(OC)c2)c1 [Example 04-58, 3-methoxy-N-(3-methoxyphenyl)-4-((2-methyl-3-oxocyclopent-1-en-1-yl)amino)-benzamide]
6 | 1 to 10 µM | 1 to 10 µM | NC(=O)c1ccc(NC2=CC(=O)CC2)cc1 [Example 01-2]
7 | 1 to 10 µM | > 10 µM | CC1=C(Nc2cccc(C(=O)Nc3ccncc3)c2)CCC1=O [Example 04-3]
8 | > 10 µM | > 10 µM | COc1cccc(NC(=O)c2ccc(NC3=C(C)C(=O)CC3)cc2Cl)c1 [Example 04-47, 2-chloro-N-(3-methoxyphenyl)-4-((2-methyl-3-oxocyclopent-1-en-1-yl)amino)benzamide]
9 | 1 to 10 µM | 1 to 10 µM | COc1cccc(NC(=O)c2ccc(NC3=C(C)C(=O)CC3)cc2OC)c1 [Example 04-70, 2-methoxy-N-(3-methoxyphenyl)-4-((2-methyl-3-oxocyclopent-1-en-1-yl)amino)-benzamide]
10 | < 1 µM | < 1 µM | CC1=C(Nc2cc(NS(=O)(=O)c3ccccc3Cl)ccc2Cl)CCC1=O [Example 05-56, N-(4-chloro-3-((2-methyl-3-oxocyclopent-1-en-1-yl)amino)-phenyl)-2-chlorobenzenesulfonamide]
11 | 1 to 10 µM | 1 to 10 µM | CC1=C(Nc2ccc(C(=O)Nc3cccc(C)c3)cc2)CCC1=O [Example 03-9]
12 | 1 to 10 µM | 1 to 10 µM | CNC(=O)c1ccc(NC2=C(C)C(=O)CC2)c(OC)c1 [Example 04-53, 3-methoxy-N-methyl-4-((2-methyl-3-oxocyclopent-1-en-1-yl)amino)benzamide]
13 | > 10 µM | > 10 µM | CC1=C(N[C@H]2CC[C@H](C(=O)O)CC2)CCC1=O [Example 01-33, trans-(1R,4R)-4-((2-methyl-3-oxocyclopent-1-en-1-yl)amino)cyclo6hexane-carboxylic acid]
14 | 1 to 10 µM | > 10 µM | CC1=C(Nc2ccc(C(=O)O)cc2F)CCC1=O [Examples 02-6]
15 | 1 to 10 µM | 1 to 10 µM | COc1cc(C(=O)Nc2cccc3ccccc23)ccc1NC1=C(C)C(=O)CC1 [Example 04-55, 3-methoxy-4-((2-methyl-3-oxocyclopent-1-en-1-yl)amino)-N-(naphthalen-1-yl)-benzamide]
16 | 1 to 10 µM | 1 to 10 µM | CC1=C(Nc2ccc(C(=O)Nc3ccccc3C)cc2C)CCC1=O [Example 04-84, 3-methyl-4-((2-methyl-3-oxocyclopent-1-en-1-yl)amino)-N-(o-tolyl)benzamide]
17 | 1 to 10 µM | 1 to 10 µM | CC1=C(Nc2ccc(C(=O)Nc3ccccc3)cc2Cl)CCC1=O [Example 04-16, 3-chloro-4-((2-methyl-3-oxocyclopent-1-en-1-yl)amino)-N-phenylbenzamide]
18 | 1 to 10 µM | 1 to 10 µM | CC1=C(Nc2ccc(C(=O)NC3CCCCC3)cc2)CCC1=O [Example 03-19, N-cyclohexyl-4-((2-methyl-3-oxocyclopent-1-en-1-yl)amino)benzamide]
19 | 1 to 10 µM | 1 to 10 µM | CC1=C(Nc2cccc(C(=O)Nc3ccccc3F)c2)CCC1=O [Example 04-8]
20 | > 10 µM | > 10 µM | COc1ccc(NC(=O)c2ccc(Cl)c(NC3=C(C#N)C(=O)CCC3)c2)cc1 [Example 05-35, 4-chloro-3-((2-cyano-3-oxocyclohex-1-en-1-yl)amino)-N-(4-methoxyphenyl)benzamide]

Row | IC50 [1] | IC50 (BRD4_2) | Compound
21 | < 1 µM | 1 to 10 µM | CC1=C(Nc2cccc(Nc3ccccc3C)c2Cl)CCCC1=O [Example 05-80, 3-((2-chloro-3-(o-tolylamino)phenyl)amino)-2-methylcyclohex-2-enone]
22 | < 1 µM | 1 to 10 µM | COc1cccc(NC(=O)c2ccc(NC3=C(C)C(=O)CC3)c(Cl)c2)c1 [Example 04-18, 3-chloro-N-(3-methoxyphenyl)-4-((2-methyl-3-oxocyclopent-1-en-1-yl)amino)benzamide]
23 | > 10 µM | > 10 µM | COC(=O)c1ccc(Br)c(NC2=C(C)C(=O)CCC2)c1 [Examples 02-9]
24 | 1 to 10 µM | 1 to 10 µM | COc1cc(NC2=C(C)C(=O)CC2)ccc1C(=O)NC1CCCCC1 [Example 04-66, N-cyclohexyl-2-methoxy-4-((2-methyl-3-oxocyclopent-1-en-1-yl)amino)-benzamide]
25 | > 10 µM | > 10 µM | CC1=C(Nc2ccc(C(=O)NC3CCCCC3)c(Cl)c2)CCC1=O [Example 04-43, 2-chloro-N-cyclohexyl-4-((2-methyl-3-oxocyclopent-1-en-1-yl)amino)benzamide]
26 | 1 to 10 µM | 1 to 10 µM | CC1=C(Nc2ccc(S(=O)(=O)Nc3ccccn3)cc2)CCC1=O [Example 01-31, 4-((2-methyl-3-oxocyclopent-1-en-1-yl)amino)-N-(pyridin-2-yl)benzenesulfonamide]
27 | > 10 µM | > 10 µM | CC1=C(Nc2ccc(C(=O)Nc3cccc(F)c3)c(Cl)c2)CCC1=O [Example 04-52, 2-chloro-N-(3-fluorophenyl)-4-((2-methyl-3-oxocyclopent-1-en-1-yl)amino)-benzamide]
28 | > 10 µM | > 10 µM | Cc1ccccc1NC(=O)c1ccc(Cl)c(NC2=C(C#N)C(=O)CCC2)c1 [Example 05-34, 4-chloro-3-((2-cyano-3-oxocyclohex-1-en-1-yl)amino)-N-(o-tolyl)benzamide]
29 | 1 to 10 µM | 1 to 10 µM | COc1ccc(NC(=O)c2cccc(NC3=C(C)C(=O)CC3)c2)cc1 [Example 04-4]
30 | 1 to 10 µM | > 10 µM | CC(=O)c1ccc(NC2=C(C)C(=O)CC2)cc1 [Example 01-9]
31 | 1 to 10 µM | 1 to 10 µM | CC1=C(Nc2ccc(C(=O)Nc3ccc(C)cc3)cc2)CCC1=O [Example 03-7]
32 | 1 to 10 µM | > 10 µM | C#Cc1cccc(NC2=C(C)C(=O)CC2)c1 [Examples 06-1]
33 | 1 to 10 µM | 1 to 10 µM | COc1ccc(NC(=O)Cc2ccc(NC3=C(C)C(=O)CCC3)cc2)cc1 [Example 04-99, N-(4-methoxyphenyl)-2-(4-((2-methyl-3-oxocyclohex-1-en-1-yl)amino)phenyl)-acetamide]
34 | > 10 µM | > 10 µM | COC(=O)c1ccccc1NC1=C(C)C(=O)CC1 [Example 01-19, methyl 2-((2-methyl-3-oxocyclopent-1-en-1-yl)amino)benzoate]
35 | 1 to 10 µM | 1 to 10 µM | COC(=O)c1ccc(NC2=C(C)C(=O)CC2)c(Cl)c1 [Example 01-11, methyl 3-chloro-4((2-methyl-3-oxocyclopent-1-en-1-yl)amino)benzoate]
36 | 1 to 10 µM | > 10 µM | COc1ccccc1NC(=O)c1ccc(NC2=C(C)C(=O)CC2)cc1Cl [Example 04-46, 2-chloro-N-(2-methoxyphenyl)-4-((2-methyl-3-oxocyclopent-1-en-1-yl)amino)benzamide]
37 | 1 to 10 µM | > 10 µM | CC1=C(Nc2ccc(C(=O)O)cc2)CCC1=O [Examples 02-1]
38 | > 10 µM | > 10 µM | CC1=C(Nc2ccccc2C(=O)O)CCC1=O [Examples 02-4]
39 | 1 to 10 µM | 1 to 10 µM | COC(=O)c1ccc(NC2=C(C)C(=O)CCC2)c(Cl)c1 [Example 05-12, methyl 3-chloro-4((2-methyl-3-oxocyclohex-1-en-1-yl)amino)benzoate]
40 | < 1 µM | 1 to 10 µM | COc1ccc(Cn2cc(-c3cccc(NC4=C(C)C(=O)CC4)c3)nn2)cc1 [Example 06-15, 3-((3-(1-(4-methoxybenzyl)-1H-1,2,3-triazol-4-yl)phenyl)amino)-2-methylcyclopent-2-enone]
